In US6486160B1, “Pharmaceutical composition for modulating immunity” (Toray Industries, Inc., priority 2001, dated 2002):

Columns and labels:
Format in all cases: in vivo, human
[1] = test system: CRP; test: CRP value by latex agglutination assay in a patient given Pimobendan orally
Protocol: (§1) 2-(4-Methoxyphenyl)-5-(5-methyl-3-oxo-4,5-dihydro-2H-6-pyridazinyl)-benzimidazole (hereunder referred to as imobendan was orally administered to a patient who suffered from heart failure while malignant articular rheumatism set in as a complication and the CRP value thereof was determined with the elapse of time.
The CRP value was determined by the latex agglutination assay disclosed in Senju Osamu, et al.: J. Clin. Lab. Immunol. 19:99-103(1986) according to a method identical to that disclosed in Claus David R. et al.: J. Lab. Clin. Med. 87:120-128(1976).
When Pimobendan was administered to the patient in a dose of 1.25 mg, the CRP value thereof was reduced and therefore, the compound was administered in a dose of 1.25 mg twice a day on and after the next day (this was defined to be the day at which the administration was initiated).
(§2) Thus, the administration of Pimobendan was discontinued. Thereafter, Pimobendan was again administered to the patient in a dose of 1.25 mg twice a day to confirm the effect of the drug to reduce the CRP value.

[2] = test system: heart function; test: Echocardiography of the patient; settings: patient with heart failure, 1.25 mg twice a day
[3] = test system: inflammation due to the malignant articular rheumatism; test: Inflammation due to malignant articular rheumatism in the patient; settings: re-administration, 1.25 mg twice a day
Protocol: as §1, §2

Compound: COc1ccc(-c2nc3ccc(C4=NNC(=O)CC4C)cc3[nH]2)cc1 (centres unmarked) [Pimobendan, 2-(4-Methoxyphenyl)-5-(5-methyl-3-oxo-4,5-dihydro-2H-6-pyridazinyl)-benzimidazole]
- CRP value (change) ([1]; after first dose of 1.25 mg, value prior to administration 4.7 mg/dl): reduced
- CRP Value ([1]; day 89, in parentheses: day at which Pimobendan was not administered (discontinued)): (5.0) mg/dl
- CRP Value ([1]; day 90, in parentheses: day at which Pimobendan was not administered (discontinued)): (2.7) mg/dl
- CRP Value ([1]; day 97, in parentheses: day at which Pimobendan was not administered (discontinued)): (2.4) mg/dl
- CRP Value ([1]; day 105, in parentheses: day at which Pimobendan was not administered (discontinued)): (3.6) mg/dl
- CRP Value ([1]; day 113, in parentheses: day at which Pimobendan was not administered (discontinued)): (3.2) mg/dl
- CRP Value ([1]; day 119, in parentheses: day at which Pimobendan was not administered (discontinued)): (2.9) mg/dl
- CRP Value ([1]; patient, again 1.25 mg twice a day, day 126 after initiating the administration): 3.0 mg/dL
- CRP Value ([1]; patient, again 1.25 mg twice a day, day 127 after initiating the administration): 4.3 mg/dL
- CRP Value ([1]; patient, again 1.25 mg twice a day, day 130 after initiating the administration): 3.8 mg/dL
- CRP Value ([1]; patient, again 1.25 mg twice a day, day 132 after initiating the administration): 2.1 mg/dL
- CRP Value ([1]; patient, again 1.25 mg twice a day, day 137 after initiating the administration): 1.3 mg/dL
- CRP Value ([1]; patient, oral 1.25 mg twice a day, day 12 after initiating the administration): 1.7 mg/dL
- CRP Value ([1]; patient, oral 1.25 mg twice a day, day 28 after initiating the administration): 6.1 mg/dL
- CRP Value ([1]; patient, oral 1.25 mg twice a day, day 61 after initiating the administration): 3.0 mg/dL
- CRP Value ([1]; patient, oral 1.25 mg twice a day, day 71 after initiating the administration): 3.3 mg/dL
- CRP value (change) ([1]; re-administration, 1.25 mg twice a day after discontinuation): again reduced
- CRP value (overall conclusion from Table 1) ([1]; whole test period): reduce the CRP value to a clinically satisfactory level
- heart function [2]: improved
- inflammation due to the malignant articular rheumatism [3]: recovered
